ChEMBL document CHEMBL1201862, “PubChem BioAssay data set” (2004)
Calls of active or inactive are those of the source.

Assays:
[1] = target: T1, NAD-dependent protein deacylase sirtuin-5, mitochondrial (Homo sapiens, UniProt Q9NXA8); assay: blockers of sirtuin-5 peptide desuccinylation – biochemical, fluorescence imaging, cherry-pick, set 6, dose response (AID 720597)
[2] = target: T2, Tyrosine-protein phosphatase non-receptor type 7 (Homo sapiens, UniProt P35236); assay: HePTP tyrosine phosphatase activity blockers – biochemical, absorbance, leukemia target, primary screen (AID 521); type: functional
T2 sequence (P35236 whole entry): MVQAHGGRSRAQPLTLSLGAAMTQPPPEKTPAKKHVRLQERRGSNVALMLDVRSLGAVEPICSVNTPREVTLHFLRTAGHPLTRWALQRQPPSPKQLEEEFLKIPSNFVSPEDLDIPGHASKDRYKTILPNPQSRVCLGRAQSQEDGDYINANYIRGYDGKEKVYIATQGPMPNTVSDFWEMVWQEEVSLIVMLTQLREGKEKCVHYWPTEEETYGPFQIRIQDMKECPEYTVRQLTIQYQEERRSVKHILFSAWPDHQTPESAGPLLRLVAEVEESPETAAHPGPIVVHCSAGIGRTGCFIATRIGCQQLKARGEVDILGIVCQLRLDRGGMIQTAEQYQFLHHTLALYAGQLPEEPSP

Bcl-2-like protein 10 = target: T3, Bcl-2-like protein 10 (Homo sapiens, UniProt Q9HD36); assay: Bcl-B/TR3 peptide binding disruption – biochemical, fluorescence polarization, FITC-TR3 peptide, selectivity assay for Bfl-1 inhibitor project, primary screen (AID 748);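 also: fluorescence polarization from a fluorescein-labelled TR3 peptide binding purified Bcl-B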
T3 sequence (Q9HD36 whole entry): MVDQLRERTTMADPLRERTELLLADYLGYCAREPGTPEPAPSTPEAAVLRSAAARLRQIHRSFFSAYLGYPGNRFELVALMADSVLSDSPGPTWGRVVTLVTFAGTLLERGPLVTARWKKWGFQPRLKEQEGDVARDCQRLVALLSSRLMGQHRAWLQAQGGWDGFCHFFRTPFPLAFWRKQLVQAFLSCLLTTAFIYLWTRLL

[3] = target: T4, Methionyl-tRNA synthetase, putative (Trypanosoma brucei brucei, UniProt Q38C91); type: functional, Trypanosoma brucei brucei strain 927/4 GUTat10.1
T4 sequence (Q38C91 whole entry): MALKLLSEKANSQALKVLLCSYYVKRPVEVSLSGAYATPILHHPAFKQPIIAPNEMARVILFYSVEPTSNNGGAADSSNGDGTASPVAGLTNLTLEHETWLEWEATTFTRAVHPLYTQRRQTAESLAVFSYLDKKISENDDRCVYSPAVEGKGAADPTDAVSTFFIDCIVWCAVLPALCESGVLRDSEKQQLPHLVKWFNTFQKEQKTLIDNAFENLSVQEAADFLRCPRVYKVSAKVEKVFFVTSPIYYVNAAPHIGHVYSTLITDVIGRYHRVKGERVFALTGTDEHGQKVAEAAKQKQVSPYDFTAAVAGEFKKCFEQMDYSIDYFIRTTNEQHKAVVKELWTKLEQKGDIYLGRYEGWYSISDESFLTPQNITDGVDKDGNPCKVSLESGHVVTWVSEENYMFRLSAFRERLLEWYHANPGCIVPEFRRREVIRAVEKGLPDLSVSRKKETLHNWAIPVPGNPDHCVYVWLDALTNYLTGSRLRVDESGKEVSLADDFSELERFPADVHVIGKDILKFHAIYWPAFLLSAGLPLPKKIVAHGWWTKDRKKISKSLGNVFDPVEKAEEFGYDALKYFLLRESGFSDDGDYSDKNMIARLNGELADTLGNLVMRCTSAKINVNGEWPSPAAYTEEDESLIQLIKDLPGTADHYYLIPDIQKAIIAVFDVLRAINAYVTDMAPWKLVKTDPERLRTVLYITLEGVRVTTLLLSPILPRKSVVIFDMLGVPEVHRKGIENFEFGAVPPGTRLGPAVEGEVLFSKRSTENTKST

[4] = Late stage counterscreen for inhibitors of Trypanosoma brucei methionyl tRNA synthetase (MetRS): Luminescence-based cell-based high throughput dose response assay to identify compounds that are cytotoxic to Jurkat human T lymphocyte cells.; type: functional
[5] = Counterscreen for inhibitors of Trypanosoma brucei methionyl tRNA synthetase (MetRS): Luminescence-based cell-based high throughput dose response assay to identify compounds that are cytotoxic to Jurkat human T lymphocyte cells.; type: functional
[6] = target: T4, Methionyl-tRNA synthetase, putative; type: functional, Trypanosoma brucei brucei strain 927/4 GUTat10.1; remark: listed apart in the source
Protein Tat = target: T5, Protein Tat (Human immunodeficiency virus type 1 group M subtype B (isolate HXB2)(HIV-1), UniProt P04608); type: functional;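 also: tat binding to TAR RNA read out by fluorescence polarization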
T5 sequence (P04608 whole entry): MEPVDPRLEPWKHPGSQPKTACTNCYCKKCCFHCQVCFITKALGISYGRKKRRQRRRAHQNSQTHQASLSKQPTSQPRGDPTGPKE

[7] = HIV-1 Vif–A3G interaction blockers – biochemical, TR-FRET, GST-Vif 1-94, biotin-A3G peptide, dose response retest, primary screen (AID 1117319); type: functional;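 also: TR-FRET signal of purified GST-Vif binding a biotinylated A3G peptide; inhibitors lower the FRET signal by blocking Vif and A3G binding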
[8] = target: T6, Mannose-6-phosphate isomerase (Homo sapiens, UniProt P34949); assay: MPI enzyme activity inhibition – biochemical, fluorescence intensity, coupled assay, primary screen (AID 1209)
T6 sequence (P34949 whole entry): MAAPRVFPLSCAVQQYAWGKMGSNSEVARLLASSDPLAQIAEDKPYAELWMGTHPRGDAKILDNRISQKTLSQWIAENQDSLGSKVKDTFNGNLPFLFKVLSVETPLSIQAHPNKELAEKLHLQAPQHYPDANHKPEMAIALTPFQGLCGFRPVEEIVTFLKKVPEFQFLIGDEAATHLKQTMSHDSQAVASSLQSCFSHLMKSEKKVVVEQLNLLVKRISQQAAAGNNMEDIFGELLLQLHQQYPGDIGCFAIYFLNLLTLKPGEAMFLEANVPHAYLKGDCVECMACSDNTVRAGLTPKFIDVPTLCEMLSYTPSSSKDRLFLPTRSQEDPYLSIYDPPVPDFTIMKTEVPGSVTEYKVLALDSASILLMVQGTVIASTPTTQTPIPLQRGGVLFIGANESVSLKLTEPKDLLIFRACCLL

[9] = target: T6, Mannose-6-phosphate isomerase; assay: MPI inhibition at elevated mannose 6-phosphate – biochemical, fluorescence intensity, high mannose 6-phosphate, primary screen (AID 1220)
[10] = viability loss in THP-1 monocytes – THP-1 cells, cytotoxicity control for Vif-APOBEC3G degradation inhibitor project, dose response (AID 1117359); type: functional; details: THP-1
[11] = target: T7, Oxysterols receptor LXR-beta (Homo sapiens, UniProt P55055); assay: LXR agonists, Gal4 luciferase reporter, dose response, counter-screen for ssDAF-12 agonist project, cell-based, luminescence, HEK293, S. stercoralis campaign (AID 720737); type: functional; details: read-out: IC50 (the source's name)
T7 sequence (P55055 whole entry): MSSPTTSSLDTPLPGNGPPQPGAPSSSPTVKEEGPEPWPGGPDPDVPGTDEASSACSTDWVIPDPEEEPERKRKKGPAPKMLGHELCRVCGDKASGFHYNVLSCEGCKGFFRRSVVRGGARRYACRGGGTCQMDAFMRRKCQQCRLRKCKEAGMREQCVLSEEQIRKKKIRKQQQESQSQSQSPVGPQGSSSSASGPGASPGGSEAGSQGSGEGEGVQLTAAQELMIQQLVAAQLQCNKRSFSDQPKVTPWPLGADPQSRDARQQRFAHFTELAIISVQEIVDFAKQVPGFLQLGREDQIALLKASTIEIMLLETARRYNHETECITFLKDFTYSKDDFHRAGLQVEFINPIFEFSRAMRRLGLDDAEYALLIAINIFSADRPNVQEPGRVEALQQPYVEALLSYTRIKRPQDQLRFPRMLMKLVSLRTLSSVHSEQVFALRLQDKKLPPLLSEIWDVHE

[12] = Luminescence-based cell-based high throughput dose response assay to identify activators of the DAF-12 from the parasite S. stercoralis (ssDAF-12).; type: functional
[13] = target: Sphingosine 1-phosphate receptor 2 (Homo sapiens, UniProt O95136); assay: Dose Response Cell Based Assay for Agonists of the S1P2 Receptor. [Related pubchem assays: 729, 736, 843 ]; type: functional
Sphingosine 1-phosphate receptor 2, sequence (O95136 whole entry): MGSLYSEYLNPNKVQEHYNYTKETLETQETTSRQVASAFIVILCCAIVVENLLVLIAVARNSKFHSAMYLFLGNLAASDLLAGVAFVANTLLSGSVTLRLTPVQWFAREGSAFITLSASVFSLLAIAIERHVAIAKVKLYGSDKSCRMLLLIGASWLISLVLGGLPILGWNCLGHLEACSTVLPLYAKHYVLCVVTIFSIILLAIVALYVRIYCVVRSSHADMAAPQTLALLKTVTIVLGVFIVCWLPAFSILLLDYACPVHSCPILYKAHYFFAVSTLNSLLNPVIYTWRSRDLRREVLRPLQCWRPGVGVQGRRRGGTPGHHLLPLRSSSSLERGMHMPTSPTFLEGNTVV

[14] = target: T1, NAD-dependent protein deacylase sirtuin-5, mitochondrial; assay: sirtuin-5 deacylation blockers, concentration series – biochemical, fluorescence imaging, cherry-pick, set 5, dose response (AID 720591);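 also: desuccinylation of succinyl peptide AMC substrate read as fluorescence after trypsin release; potency of inhibitors that lower fluorescence and may act on trypsin instead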
Genome polyprotein = Genome polyprotein (dengue virus type 2, UniProt P29990); assay: flavivirus cap methylation enzyme inhibition – biochemical, confirmation dose response, primary screen (AID 588689); type: functional
Genome polyprotein, sequence (P29990 2492-3391 limits assumed): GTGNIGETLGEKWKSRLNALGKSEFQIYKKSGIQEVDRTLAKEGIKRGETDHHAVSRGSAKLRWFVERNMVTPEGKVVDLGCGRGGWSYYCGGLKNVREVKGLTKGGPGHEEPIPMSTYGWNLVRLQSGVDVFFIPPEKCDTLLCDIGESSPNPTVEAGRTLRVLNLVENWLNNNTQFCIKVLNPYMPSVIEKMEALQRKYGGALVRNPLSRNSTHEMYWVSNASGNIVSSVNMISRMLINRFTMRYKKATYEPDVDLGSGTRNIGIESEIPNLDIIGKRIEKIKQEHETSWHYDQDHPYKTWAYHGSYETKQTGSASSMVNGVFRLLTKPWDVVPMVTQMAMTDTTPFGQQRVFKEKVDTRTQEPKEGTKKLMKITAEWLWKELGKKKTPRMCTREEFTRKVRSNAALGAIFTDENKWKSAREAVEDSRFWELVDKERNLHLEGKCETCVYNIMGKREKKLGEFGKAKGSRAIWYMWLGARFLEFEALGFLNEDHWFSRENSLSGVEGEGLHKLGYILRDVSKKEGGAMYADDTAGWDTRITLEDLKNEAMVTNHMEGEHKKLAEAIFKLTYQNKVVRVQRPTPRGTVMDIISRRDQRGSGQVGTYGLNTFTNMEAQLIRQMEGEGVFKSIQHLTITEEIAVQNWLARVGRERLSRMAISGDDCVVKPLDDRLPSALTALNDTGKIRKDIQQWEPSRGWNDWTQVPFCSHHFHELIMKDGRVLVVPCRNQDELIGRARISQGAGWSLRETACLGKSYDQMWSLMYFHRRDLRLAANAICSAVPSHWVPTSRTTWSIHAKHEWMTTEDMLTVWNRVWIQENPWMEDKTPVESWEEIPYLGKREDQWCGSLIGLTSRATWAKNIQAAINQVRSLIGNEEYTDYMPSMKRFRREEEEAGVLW

[15] = target: T8, Polyadenylate-binding protein 1 (Homo sapiens, UniProt P11940); assay: MLLE domain peptide-binding blockers, IC50 – biochemical, fluorescence polarization, FITC-PAM2 peptide, dose response (AID 602259); type: functional; details: read-out: IC50_Mean
T8 sequence (P11940 whole entry, the tested form may be a part): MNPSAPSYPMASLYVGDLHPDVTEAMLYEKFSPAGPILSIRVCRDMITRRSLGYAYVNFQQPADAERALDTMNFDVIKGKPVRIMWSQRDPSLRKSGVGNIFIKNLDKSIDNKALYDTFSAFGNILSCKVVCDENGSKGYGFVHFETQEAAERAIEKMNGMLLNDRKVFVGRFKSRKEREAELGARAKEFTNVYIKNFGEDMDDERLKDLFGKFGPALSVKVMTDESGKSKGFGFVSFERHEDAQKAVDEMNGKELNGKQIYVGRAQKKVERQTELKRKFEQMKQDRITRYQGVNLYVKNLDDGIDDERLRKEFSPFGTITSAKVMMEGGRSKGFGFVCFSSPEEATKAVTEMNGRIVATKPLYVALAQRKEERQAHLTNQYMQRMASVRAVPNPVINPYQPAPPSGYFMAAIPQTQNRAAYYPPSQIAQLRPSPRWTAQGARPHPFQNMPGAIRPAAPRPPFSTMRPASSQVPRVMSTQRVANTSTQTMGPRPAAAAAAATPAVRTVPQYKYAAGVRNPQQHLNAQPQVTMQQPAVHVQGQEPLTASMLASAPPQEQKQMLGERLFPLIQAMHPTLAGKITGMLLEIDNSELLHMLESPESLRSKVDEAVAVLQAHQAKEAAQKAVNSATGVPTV

Caspase-6 = Caspase-6 (Homo sapiens, UniProt P55212); assay: inhibition of CASP6 peptide cleavage – biochemical, VEID-R110 fluorescence, cherry-pick, dose response (AID 720632)
Caspase-6, sequence (P55212 24-179 limits assumed): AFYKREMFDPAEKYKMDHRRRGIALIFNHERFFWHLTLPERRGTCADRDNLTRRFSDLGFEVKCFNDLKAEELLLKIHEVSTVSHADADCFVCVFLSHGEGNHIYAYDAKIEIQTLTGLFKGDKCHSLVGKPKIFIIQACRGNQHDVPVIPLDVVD
Caspase-6, sequence (P55212 194-293 limits assumed): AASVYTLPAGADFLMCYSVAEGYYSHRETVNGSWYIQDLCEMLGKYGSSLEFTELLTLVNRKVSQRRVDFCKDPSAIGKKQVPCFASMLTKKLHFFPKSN

[16] = target: T8, Polyadenylate-binding protein 1; assay: MLLE binding blockers, Cy5 peptide tracer – biochemical, fluorescence polarization, Cy5-PAM2 peptide, secondary, miRNA deadenylation inhibitor project, dose response (AID 602260); type: functional; details: read-out: IC50_Mean
[17] = test system: Streptococcus sp. 'group A'; assay: Streptococcus pyogenes SK(-)GAS viability under kanamycin – luminescence, BacTiterGlo, confirmation, counter-screen for streptokinase expression inhibitor project, dose response (AID 1900); type: functional, organism-based
Streptococcus = assay: GAS UMAA2166 growth inhibition – luminescence, BacTiterGlo, counter-screen for streptokinase expression inhibitor project, dose response (AID 1915); type: functional, organism-based;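 also: potency for reduction of bacterial viability or growth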
Streptokinase A = target: T9, Streptokinase A (Streptococcus pyogenes serotype M1, UniProt P10520); assay: viability-normalized secreted streptokinase activity reduction – plasminogen activation absorbance, OD405, dose response (AID 1914); type: functional, Streptococcus pyogenes M1 GAS;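 also: secreted streptokinase activity via plasminogen activation per viability signal from cell pellet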
T9 sequence (P10520 whole entry): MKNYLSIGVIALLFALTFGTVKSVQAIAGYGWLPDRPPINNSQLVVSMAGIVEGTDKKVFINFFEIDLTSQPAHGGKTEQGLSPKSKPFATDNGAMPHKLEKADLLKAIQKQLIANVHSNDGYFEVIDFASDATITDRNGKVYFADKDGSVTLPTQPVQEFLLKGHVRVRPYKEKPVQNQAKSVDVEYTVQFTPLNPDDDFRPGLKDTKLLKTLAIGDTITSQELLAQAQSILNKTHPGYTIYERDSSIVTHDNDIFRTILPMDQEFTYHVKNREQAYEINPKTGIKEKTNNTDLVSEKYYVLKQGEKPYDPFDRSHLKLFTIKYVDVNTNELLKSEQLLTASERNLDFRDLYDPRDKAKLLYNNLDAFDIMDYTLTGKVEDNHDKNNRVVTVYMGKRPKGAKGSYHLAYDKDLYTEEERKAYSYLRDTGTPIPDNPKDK

T1 sequence (Q9NXA8 whole entry): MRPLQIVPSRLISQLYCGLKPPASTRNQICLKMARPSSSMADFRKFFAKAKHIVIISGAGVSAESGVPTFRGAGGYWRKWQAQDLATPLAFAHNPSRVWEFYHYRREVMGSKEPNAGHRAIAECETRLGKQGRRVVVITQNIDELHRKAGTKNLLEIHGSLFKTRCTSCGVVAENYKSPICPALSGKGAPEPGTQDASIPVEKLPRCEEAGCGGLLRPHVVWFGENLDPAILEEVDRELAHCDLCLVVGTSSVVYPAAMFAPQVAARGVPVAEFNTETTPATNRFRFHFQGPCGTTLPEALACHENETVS

Cc1ccc(S(=O)(=O)Nc2ccc3c(c2)C(=O)N([C@@H](C)CO)C[C@@H](C)[C@H](CN(C)S(=O)(=O)c2ccc(F)cc2)OCCCC[C@@H](C)O3)cc1
AC50 [1]: > 30 µM (inactive)

C/C(N)=C(/C#N)C(=O)CSc1nnc(Nc2c(C)cccc2C)s1
IC50 [2]: 30.2 µM (active) | IC50 (Bcl-2-like protein 10): 17.2 µM (active)

COc1ccccc1-n1c(SCC(=O)Nc2ccc(Cl)cc2)nc(=O)c(Cc2ccccc2)c1O
IC50 [3]: 5.07 µM (active) | IC50 [4]: 77.1 µM (inactive) | IC50 [5]: 74.5 µM (inactive) | IC50 [6]: 5.59 µM (active)

COc1cc(CNc2ccc3[nH]c(O)nc3c2)cc(Cl)c1OCC(=O)NC(C)(C)C
IC50 (Protein Tat): 50.5 µM (inconclusive) | IC50 [7]: > 51.4 µM (active) | IC50 [8]: > 50 µM (not active) | IC50 [9]: > 50 µM (not active) | CC50 [10]: > 40 µM (active)

Cc1cc(NC(=S)NC(=O)/C=C/c2ccc(S(=O)(=O)N3CCOCC3)cc2)ccc1Br
EC50 [11]: > 67.5 µM (inactive) | IC50 [12]: > 67.5 µM (inactive)

C[C@@H]1NC(=O)[C@H](CCC(N)=O)NC(=O)c2cc([N+](=O)[O-])cc(I)c2NCCC[C@@H](C(N)=O)NC1=O
IC50 [7]: > 100 µM (active)

COc1ccccc1CNC(=O)c1c(N)n(CCCN2CCOCC2)c2nc3ccccc3nc12
EC50 [13]: 3.9 µM (active)

O=C(O)C1=C2C(=O)Nc3cccc(c32)C2(C1)C(=O)Nc1ccccc12 (configuration not stated)
AC50 [14]: 25.1 µM (active)

CCc1nnc(NC(=O)CSc2nnc(-c3ccoc3C)n2CC(C)C)s1
IC50 [2]: > 100 µM (not active)

O=[N+]([O-])c1cc2ccccc2c(O)c1O
IC50 (Genome polyprotein): 7.79 µM (active) | IC50 [15]: > 66 µM (inactive) | AC50 (Caspase-6): 13.4 µM (active) | IC50 [16]: > 66 µM (inactive)

Oc1ccccc1C1NN=C(c2ccccc2)S1 (configuration not stated)
EC50 [11]: > 67.5 µM (inactive) | IC50 [12]: > 67.5 µM (inactive)

O=C(c1ccccc1F)N1C[C@H]2[C@@H](c3ccccc31)[C@@H](CO)N2CC1CCCCC1
AC50 [1]: > 30 µM (inactive)

O=C1CC(N(CCc2ccccc2)C(=S)Nc2ccccc2)C(=O)N1c1ccc(Br)cc1 (configuration not stated)
EC50 [17]: 2.87 µM (active) | IC50 [3]: 0.46 µM (active) | IC50 [4]: 15.4 µM (inactive) | IC50 [5]: 25.3 µM (inactive) | EC50 (Streptococcus): 18.3 µM (active) | IC50 [6]: 0.743 µM (active) | EC50 (Streptokinase A): 2.67 µM (active)
